{
  "source": "patent US20120283193A1",
  "about": "“MANIPULATION OF BRAIN IN A CIRCUIT-SPECIFIC MANNER” (priority 2009, published 2012)",
  "key": {"VSC neurons": {"system": "VSC neurons", "format": "in vivo, Xenopus", "method": "(§1) Neuropharmacology. […] For selective ablation of VSCDA neurons, MPTP was bath-applied in the dark to larvae for 8 h at stage 41. 100 mM deprenyl (Sigma) was bath-applied to inhibit monoamine oxidase.\nImmunocytochemistry. The number of neurons in the VSC was quantified by counting the cells within the core and the surrounding annular region in sections of the diencephalon.\nA pharmacological approach to test the involvement of electrical activity and calcium signaling was then performed. […] agarose beads loaded with calcein acetoxymethylester (calcein-AM) tracer were implanted in the roof of the hypothalamus above the VSC to evaluate the time course of drug delivery."}, "OB interneurons": {"system": "OB interneurons", "experiment": "Neurotransmitter expression in olfactory bulb interneurons after kin/non-kin odorant exposure", "format": "in vivo, Xenopus laevis"}, "Xenopus larvae": {"system": "Xenopus larvae", "experiment": "Skin pigmentation adaptation to illumination/background in larvae", "format": "in vivo", "conditions": "for light-dependent changes in pigmentation (reduction in pigmented area) driven by newly induced TH/NPY annular neurons: MPTP-light and control larvae, sulpiride 10 nM during 30-min exposure to white background (FIG. 6c)", "method": "Illumination experiments. The optimal condition for altering skin pigmentation and numbers of TH neurons were determined by raising larvae under two illumination conditions. In the first, larvae were placed on black, grey or white backgrounds (corresponding to N2.25, N7.25 or N9.5 on the Munsell neutral value scale of a monochromatic colour wheel) with constant illumination (331 lux (lx)). In the second, larvae on a white, grey or black background were exposed to constant illumination (6,560 lx, measured with a light meter (Sper Scientific)-equivalent to shady illumination on a sunny day), or to constant dark or to 12 h light/12 h dark. […] For some tests of the functional significance of newly TH neurons, animals were raised under different light/background conditions and a conditioning step of 30 min light/white background exposure was imposed to achieve similar levels of skin pigmentation before comparing light or dark adaptation between these groups.\nas §1"}},
  "note": "Where two headings read alike, the source gives them in different places.",
  "data": [
    {"smiles": "CC(=O)OCOC(=O)CN(CC(=O)OCOC(C)=O)c1ccccc1OCCOc1ccccc1N(CC(=O)OCOC(C)=O)CC(=O)OCOC(C)=O", "note": "[BAPTA-AM, 1,2-bis-(o-aminophenoxy)-ethane-N,N,N9,N9-tetraacetic acid, tetraacetoxymethyl ester]", "values": [
      {"measurement": "number of TH neurons or NPY/TH annular neurons in the VSC", "setting": "VSC neurons; drug-loaded agarose beads implanted above the VSC, 2 h white light following 24 h in the dark (FIG. 4b, c)", "value": "no increase"},
      {"measurement": "NPY/TH colocalization in VSC sections of bead-implanted larvae", "setting": "VSC neurons; larvae exposed to 2 h light, versus white-adapted control and calcein bead (FIG. 4B)", "value": "absent"},
      {"measurement": "changes in NT phenotype (dopamine/GABA coexpression) after kin or nonkin exposure", "setting": "OB interneurons; local delivery, stage 45 larvae, 48 hr odorant exposure", "value": "prevents"}
    ]},
    {"smiles": "CN1CC=C(c2ccccc2)CC1", "note": "[MPTP, 1-methyl-4-phenyl-1,2,3,6-tetrahydropyridine]", "values": [
      {"measurement": "changes in pigmentation after 30 min exposure to light / white background", "setting": "Xenopus larvae; dark-raised, MPTP-treated larvae (MPTP-dark group, FIG. 6c)", "value": "abolished"}
    ]},
    {"smiles": "Oc1cc2c(cc1O)C(c1ccccc1)CNCC2", "note": "(centres unmarked) [SKF-38393]", "values": [
      {"measurement": "effect on pigmentation behaviour", "setting": "Xenopus larvae; D1 receptor agonist and antagonist, opposite effect to the D2 ligands", "value": "darkening"}
    ]},
    {"smiles": "NC1=N[C@H](O)[C@H]2[C@H]3O[C@]4(O)O[C@@H]([C@@H](O)[C@@]2(N1)[C@@H]4O)[C@]3(O)CO", "note": "[TTX, tetrodotoxin]", "values": [
      {"measurement": "number of TH neurons or NPY/TH annular neurons in the VSC", "setting": "VSC neurons; in vivo", "value": "no increase"},
      {"measurement": "changes in NT phenotype (dopamine/GABA coexpression) after kin or nonkin exposure", "setting": "OB interneurons; in vivo", "value": "prevents"}
    ]},
    {"smiles": "CCN1CCCC1CNC(=O)c1cc(S(N)(=O)=O)ccc1OC", "note": "(centres unmarked) [sulpiride]", "values": [
      {"measurement": "light-dependent changes in pigmentation (reduction in pigmented area) driven by newly induced TH/NPY annular neurons", "setting": "Xenopus larvae", "value": "blocked"},
      {"measurement": "light-dependent changes in pigmentation (reduction in pigmented area) driven by newly induced TH/NPY annular neurons", "setting": "Xenopus larvae; listed as Sulpiride", "value": "blocks"},
      {"measurement": "changes in skin pigmentation in response to altered illumination", "setting": "Xenopus larvae; stage-42 larvae raised in the dark, 10 nM sulpiride for 30 min (FIG. 1c)", "value": "blocked"},
      {"measurement": "number of TH VSC neurons", "setting": "VSC neurons; sulpiride-treated larvae", "value": "not affected"}
    ]}
  ]
}
